The source made the active and inactive calls.
Key:
Assay type in all cases: functional
[1] = biological target: Serine/threonine-protein kinase PAK 4 (Homo sapiens, UniProt O96013);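 also: value obtained within a kinome profiling panel in which PAK4 was one of the panel members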
[2] = biological target: cAMP-dependent protein kinase catalytic subunit PRKX (Homo sapiens, UniProt P51817)
[3] = biological target: Serine/threonine-protein kinase Nek2 (Homo sapiens, UniProt P51955)
[4] = biological target: Vascular endothelial growth factor receptor 1 (Homo sapiens, UniProt P17948);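 also: measured within a kinome-wide profiling panel, FLT1 as the panel member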
[5] = biological target: Serine/threonine-protein kinase TAO1 (Homo sapiens, UniProt Q7L7X3)
[6] = biological target: Proto-oncogene tyrosine-protein kinase receptor Ret (Homo sapiens, UniProt P07949);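 also: measured within a kinome-wide profiling panel, RET as the panel member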
[7] = biological target: Glycogen synthase kinase-3 beta (Homo sapiens, UniProt P49841);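 also: value comes from a broad kinome profiling panel, with GSK3B as the panel member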
[8] = biological target: Serine/threonine-protein kinase pim-1 (Homo sapiens, UniProt P11309)
[9] = biological target: Dual specificity tyrosine-phosphorylation-regulated kinase 1B (Homo sapiens, UniProt Q9Y463); assay: Navigating the Kinome. Panel member name: DYRK1B
[10] = biological target: Tyrosine-protein kinase receptor TYRO3 (Homo sapiens, UniProt Q06418);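 also: TYRO3 value obtained as one member of a kinome-wide profiling panel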
[11] = biological target: Protein kinase C theta type (Homo sapiens, UniProt Q04759); assay: Navigating the Kinome. Panel member name: PRKCQ
[12] = biological target: Macrophage-stimulating protein receptor (Homo sapiens, UniProt Q04912); assay: Navigating the Kinome. Panel member name: MST1R
LIM domain kinase 1 = LIM domain kinase 1 (Homo sapiens, UniProt P53667); assay: Navigating the Kinome. Panel member name: LIMK1
[13] = biological target: Casein kinase I isoform alpha (Homo sapiens, UniProt P48729)
[14] = biological target: Rho-associated protein kinase 1 (Homo sapiens, UniProt Q13464);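 also: measured within a broad kinome-wide panel profiling many kinases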
[15] = biological target: Serine/threonine-protein kinase TBK1 (Homo sapiens, UniProt Q9UHD2); assay: Navigating the Kinome. Panel member name: TBK1
[16] = biological target: Glycogen synthase kinase-3 alpha (Homo sapiens, UniProt P49840);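 also: GSK3A result taken from a broad kinome-wide kinase panel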
Aurora kinase B = Aurora kinase B (Homo sapiens, UniProt Q96GD4)
[17] = biological target: Cyclin-dependent kinase 9 (Homo sapiens, UniProt P50750);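 also: value from the CDK9 entry of a kinome-spanning kinase panel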
[18] = biological target: Leucine-rich repeat serine/threonine-protein kinase 2 (Homo sapiens, UniProt Q5S007);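 also: value from a broad kinome-wide panel profiling study in which LRRK2 was one of the kinases tested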
[19] = biological target: Cyclin-dependent kinase 7 (Homo sapiens, UniProt P50613);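 also: value comes from a kinome-wide kinase profiling panel in which CDK7 is one member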
[20] = biological target: cAMP-dependent protein kinase catalytic subunit alpha (Homo sapiens, UniProt P17612)
[21] = biological target: Cyclin-dependent kinase 19 (Homo sapiens, UniProt Q9BWU1); assay: Navigating the Kinome. Panel member name: CDC2L6
[22] = biological target: Mitogen-activated protein kinase kinase kinase kinase 4 (Homo sapiens, UniProt O95819)
[23] = biological target: Cyclin-dependent kinase 8 (Homo sapiens, UniProt P49336); assay: Navigating the Kinome. Panel member name: CDK8
[24] = biological target: Dual specificity mitogen-activated protein kinase kinase 1 (Homo sapiens, UniProt Q02750); assay: Navigating the Kinome. Panel member name: MAP2K1
[25] = biological target: Mitogen-activated protein kinase kinase kinase kinase 2 (Homo sapiens, UniProt Q12851);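 also: measured as one member of a kinome-wide kinase panel, with MAP4K2 as the panel entry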
[26] = biological target: Serine/threonine-protein kinase D3 (Homo sapiens, UniProt O94806);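 also: determined within a kinase panel screen, with PRKCN as the panel member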
[27] = biological target: Serine/threonine-protein kinase Chk1 (Homo sapiens, UniProt O14757);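 also: measured as one member of a kinome-wide kinase profiling panel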
[28] = biological target: 5'-AMP-activated protein kinase catalytic subunit alpha-1 (Homo sapiens, UniProt Q13131)
[29] = biological target: Calcium/calmodulin-dependent protein kinase type II subunit alpha (Homo sapiens, UniProt Q9UQM7); assay: Navigating the Kinome. Panel member name: CAMK2A
Activin receptor type-1 = Activin receptor type-1 (Homo sapiens, UniProt Q04771); assay: Navigating the Kinome. Panel member name: ACVR1
[30] = biological target: Dual specificity protein kinase CLK2 (Homo sapiens, UniProt P49760)
[31] = biological target: Leukocyte tyrosine kinase receptor (Homo sapiens, UniProt P29376); assay: Navigating the Kinome. Panel member name: LTK
[32] = biological target: Dual specificity mitogen-activated protein kinase kinase 2 (Homo sapiens, UniProt P36507); assay: Navigating the Kinome. Panel member name: MAP2K2
[33] = biological target: Death-associated protein kinase 3 (Homo sapiens, UniProt O43293);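 also: measured as one member of a kinome-wide profiling panel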
[34] = biological target: Tyrosine-protein kinase JAK2 (Homo sapiens, UniProt O60674);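 also: JAK2 tested as one member of a kinase panel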
Aurora kinase A = Aurora kinase A (Homo sapiens, UniProt O14965);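 also: value from the Navigating the Kinome kinase panel profiling, panel entry STK6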
[35] = biological target: Dual specificity tyrosine-phosphorylation-regulated kinase 1A (Homo sapiens, UniProt Q13627);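 also: measured against DYRK1A as one member of a broad kinome profiling panel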
[36] = biological target: Dual specificity protein kinase CLK4 (Homo sapiens, UniProt Q9HAZ1)
[37] = biological target: Vascular endothelial growth factor receptor 2 (Homo sapiens, UniProt P35968)
[38] = biological target: Inhibitor of nuclear factor kappa-B kinase subunit epsilon (Homo sapiens, UniProt Q14164); assay: Navigating the Kinome. Panel member name: IKBKE
Activated CDC42 kinase 1 = Activated CDC42 kinase 1 (Homo sapiens, UniProt Q07912); assay: Navigating the Kinome. Panel member name: ACK1
[39] = biological target: Fibroblast growth factor receptor 1 (Homo sapiens, UniProt P11362)
[40] = biological target: BDNF/NT-3 growth factors receptor (Homo sapiens, UniProt Q16620);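 also: NTRK2 measured as one member of a broad kinome-wide kinase profiling panel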
[41] = biological target: Hepatocyte growth factor receptor (Homo sapiens, UniProt P08581);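 also: kinase panel profiling across the kinome, with MET as the panel member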
[42] = biological target: Platelet-derived growth factor receptor alpha (Homo sapiens, UniProt P16234); assay: Navigating the Kinome. Panel member name: PDGFRA
[43] = biological target: Tyrosine-protein kinase ABL1 (Homo sapiens, UniProt P00519)
[44] = biological target: Macrophage colony-stimulating factor 1 receptor (Homo sapiens, UniProt P07333);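 also: value comes from the Navigating the Kinome screening panel, CSF1R member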
[45] = biological target: Mitogen-activated protein kinase 8 (Homo sapiens, UniProt P45983);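 also: value comes from one member of a kinome-wide kinase profiling panel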
[46] = biological target: ALK tyrosine kinase receptor (Homo sapiens, UniProt Q9UM73);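 also: ALK tested as one member of a kinase panel screen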

Sequence of Cyclin-dependent kinase 19 (Q9BWU1 whole entry): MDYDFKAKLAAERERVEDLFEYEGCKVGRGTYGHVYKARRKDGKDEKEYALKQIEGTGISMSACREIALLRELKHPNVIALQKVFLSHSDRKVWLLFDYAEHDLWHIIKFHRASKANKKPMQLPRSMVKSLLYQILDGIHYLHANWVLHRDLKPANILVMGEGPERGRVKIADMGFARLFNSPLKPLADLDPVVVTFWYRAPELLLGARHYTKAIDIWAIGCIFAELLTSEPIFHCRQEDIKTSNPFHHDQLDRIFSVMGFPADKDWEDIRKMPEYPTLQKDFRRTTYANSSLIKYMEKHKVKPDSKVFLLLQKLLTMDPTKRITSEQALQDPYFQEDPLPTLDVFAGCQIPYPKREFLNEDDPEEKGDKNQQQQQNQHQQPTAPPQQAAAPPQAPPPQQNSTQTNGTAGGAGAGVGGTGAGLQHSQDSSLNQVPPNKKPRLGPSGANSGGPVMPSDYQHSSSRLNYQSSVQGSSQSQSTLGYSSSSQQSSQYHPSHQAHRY
Sequence of Dual specificity protein kinase CLK2 (P49760 whole entry): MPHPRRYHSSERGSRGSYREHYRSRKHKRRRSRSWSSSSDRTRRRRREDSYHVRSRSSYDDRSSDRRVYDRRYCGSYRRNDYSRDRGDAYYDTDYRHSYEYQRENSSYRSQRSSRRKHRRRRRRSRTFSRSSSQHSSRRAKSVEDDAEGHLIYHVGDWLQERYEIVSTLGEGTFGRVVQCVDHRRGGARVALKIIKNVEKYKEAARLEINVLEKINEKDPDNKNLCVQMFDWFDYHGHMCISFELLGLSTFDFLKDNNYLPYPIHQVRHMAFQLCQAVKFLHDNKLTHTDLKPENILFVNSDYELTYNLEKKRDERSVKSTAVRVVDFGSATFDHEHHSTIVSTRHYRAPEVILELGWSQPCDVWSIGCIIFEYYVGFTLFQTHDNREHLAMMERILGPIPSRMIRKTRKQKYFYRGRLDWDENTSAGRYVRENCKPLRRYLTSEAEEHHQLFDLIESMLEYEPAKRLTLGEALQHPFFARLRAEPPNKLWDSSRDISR
Sequence of Protein kinase C theta type (Q04759 whole entry): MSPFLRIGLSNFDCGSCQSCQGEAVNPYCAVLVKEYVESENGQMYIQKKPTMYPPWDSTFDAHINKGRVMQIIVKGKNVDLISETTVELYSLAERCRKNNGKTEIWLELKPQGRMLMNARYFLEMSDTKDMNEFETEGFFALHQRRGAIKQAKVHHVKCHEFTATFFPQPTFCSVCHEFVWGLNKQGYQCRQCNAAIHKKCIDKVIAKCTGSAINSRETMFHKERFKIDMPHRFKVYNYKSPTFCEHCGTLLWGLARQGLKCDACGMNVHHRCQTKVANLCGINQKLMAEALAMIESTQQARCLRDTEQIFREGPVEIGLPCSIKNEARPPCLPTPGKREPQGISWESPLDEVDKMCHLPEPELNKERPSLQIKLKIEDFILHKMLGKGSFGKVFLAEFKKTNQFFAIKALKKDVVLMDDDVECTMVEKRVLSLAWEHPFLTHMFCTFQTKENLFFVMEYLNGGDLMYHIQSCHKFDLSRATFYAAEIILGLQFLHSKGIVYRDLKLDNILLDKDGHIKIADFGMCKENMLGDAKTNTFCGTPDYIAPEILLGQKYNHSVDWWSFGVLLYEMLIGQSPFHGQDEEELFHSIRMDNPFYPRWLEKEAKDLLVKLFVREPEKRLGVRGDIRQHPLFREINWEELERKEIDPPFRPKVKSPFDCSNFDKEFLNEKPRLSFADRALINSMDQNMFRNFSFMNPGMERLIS
Sequence of Rho-associated protein kinase 1 (Q13464 whole entry): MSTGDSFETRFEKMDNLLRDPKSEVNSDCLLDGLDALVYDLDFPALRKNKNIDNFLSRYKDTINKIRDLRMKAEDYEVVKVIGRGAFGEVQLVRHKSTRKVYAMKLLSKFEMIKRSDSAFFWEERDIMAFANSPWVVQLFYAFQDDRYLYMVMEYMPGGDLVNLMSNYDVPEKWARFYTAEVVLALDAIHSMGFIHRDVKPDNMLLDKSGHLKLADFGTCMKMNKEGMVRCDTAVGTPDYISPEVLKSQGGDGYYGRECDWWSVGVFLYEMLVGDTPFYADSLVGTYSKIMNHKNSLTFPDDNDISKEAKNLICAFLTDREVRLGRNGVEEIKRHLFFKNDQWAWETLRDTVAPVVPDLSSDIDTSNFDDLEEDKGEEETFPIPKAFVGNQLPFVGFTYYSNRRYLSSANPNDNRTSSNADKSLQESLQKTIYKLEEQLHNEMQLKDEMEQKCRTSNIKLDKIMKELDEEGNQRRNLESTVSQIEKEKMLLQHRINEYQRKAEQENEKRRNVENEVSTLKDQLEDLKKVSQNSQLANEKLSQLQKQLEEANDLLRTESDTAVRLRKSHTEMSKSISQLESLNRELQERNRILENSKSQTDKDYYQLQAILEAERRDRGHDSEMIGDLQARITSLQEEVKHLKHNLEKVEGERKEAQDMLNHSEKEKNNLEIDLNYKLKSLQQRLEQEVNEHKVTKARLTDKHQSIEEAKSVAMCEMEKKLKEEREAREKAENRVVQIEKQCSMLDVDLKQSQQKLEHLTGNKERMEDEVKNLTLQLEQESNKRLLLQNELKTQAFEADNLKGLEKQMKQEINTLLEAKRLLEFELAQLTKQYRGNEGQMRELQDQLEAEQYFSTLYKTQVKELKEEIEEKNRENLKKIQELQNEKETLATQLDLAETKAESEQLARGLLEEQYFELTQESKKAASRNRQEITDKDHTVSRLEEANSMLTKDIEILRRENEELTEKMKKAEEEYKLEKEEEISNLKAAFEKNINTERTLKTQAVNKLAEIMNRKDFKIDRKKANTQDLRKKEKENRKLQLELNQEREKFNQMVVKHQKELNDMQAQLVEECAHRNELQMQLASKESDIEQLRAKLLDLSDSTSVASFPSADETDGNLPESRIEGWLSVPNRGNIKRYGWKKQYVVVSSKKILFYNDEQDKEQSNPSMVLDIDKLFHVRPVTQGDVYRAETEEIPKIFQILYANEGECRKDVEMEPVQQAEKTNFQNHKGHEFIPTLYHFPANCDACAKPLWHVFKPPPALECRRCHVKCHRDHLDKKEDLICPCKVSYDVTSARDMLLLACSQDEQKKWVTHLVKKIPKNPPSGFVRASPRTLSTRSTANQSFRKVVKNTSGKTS
Sequence of Serine/threonine-protein kinase TAO1 (Q7L7X3 whole entry): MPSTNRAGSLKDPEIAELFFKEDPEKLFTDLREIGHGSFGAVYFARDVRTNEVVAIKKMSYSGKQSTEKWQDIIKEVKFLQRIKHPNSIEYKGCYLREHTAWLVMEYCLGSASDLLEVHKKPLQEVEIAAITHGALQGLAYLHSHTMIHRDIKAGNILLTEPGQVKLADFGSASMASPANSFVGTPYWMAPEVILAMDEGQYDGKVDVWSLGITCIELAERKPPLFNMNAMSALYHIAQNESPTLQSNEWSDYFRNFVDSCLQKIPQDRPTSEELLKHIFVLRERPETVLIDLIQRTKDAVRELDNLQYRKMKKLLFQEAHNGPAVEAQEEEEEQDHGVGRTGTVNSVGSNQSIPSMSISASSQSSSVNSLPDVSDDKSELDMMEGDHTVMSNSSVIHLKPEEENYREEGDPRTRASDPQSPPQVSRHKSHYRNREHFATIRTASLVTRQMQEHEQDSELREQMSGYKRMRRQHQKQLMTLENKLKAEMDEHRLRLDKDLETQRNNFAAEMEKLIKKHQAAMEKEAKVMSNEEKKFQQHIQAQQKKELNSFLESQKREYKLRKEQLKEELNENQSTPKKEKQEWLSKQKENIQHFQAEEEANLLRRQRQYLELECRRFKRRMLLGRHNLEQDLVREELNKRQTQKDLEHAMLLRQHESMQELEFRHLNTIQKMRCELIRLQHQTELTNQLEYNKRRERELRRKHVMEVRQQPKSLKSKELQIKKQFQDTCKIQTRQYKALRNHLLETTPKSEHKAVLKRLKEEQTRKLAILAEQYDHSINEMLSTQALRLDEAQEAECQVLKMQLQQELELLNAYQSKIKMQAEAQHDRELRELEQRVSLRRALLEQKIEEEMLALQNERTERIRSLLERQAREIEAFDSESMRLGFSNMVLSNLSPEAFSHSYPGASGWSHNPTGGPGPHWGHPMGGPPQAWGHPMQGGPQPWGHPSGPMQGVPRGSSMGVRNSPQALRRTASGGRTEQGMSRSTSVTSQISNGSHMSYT
Sequence of Dual specificity mitogen-activated protein kinase kinase 2 (P36507 whole entry): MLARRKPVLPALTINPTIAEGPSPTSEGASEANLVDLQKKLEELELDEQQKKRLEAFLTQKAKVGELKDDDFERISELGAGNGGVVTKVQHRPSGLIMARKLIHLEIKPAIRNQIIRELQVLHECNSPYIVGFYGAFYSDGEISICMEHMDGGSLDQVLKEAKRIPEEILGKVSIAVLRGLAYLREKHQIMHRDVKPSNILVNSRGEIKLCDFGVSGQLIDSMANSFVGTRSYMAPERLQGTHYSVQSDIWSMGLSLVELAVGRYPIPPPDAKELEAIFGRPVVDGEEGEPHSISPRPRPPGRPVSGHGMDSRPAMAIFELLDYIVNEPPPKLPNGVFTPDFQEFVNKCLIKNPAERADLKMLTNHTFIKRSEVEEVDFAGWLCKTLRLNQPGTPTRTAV
Sequence of Glycogen synthase kinase-3 beta (P49841 whole entry): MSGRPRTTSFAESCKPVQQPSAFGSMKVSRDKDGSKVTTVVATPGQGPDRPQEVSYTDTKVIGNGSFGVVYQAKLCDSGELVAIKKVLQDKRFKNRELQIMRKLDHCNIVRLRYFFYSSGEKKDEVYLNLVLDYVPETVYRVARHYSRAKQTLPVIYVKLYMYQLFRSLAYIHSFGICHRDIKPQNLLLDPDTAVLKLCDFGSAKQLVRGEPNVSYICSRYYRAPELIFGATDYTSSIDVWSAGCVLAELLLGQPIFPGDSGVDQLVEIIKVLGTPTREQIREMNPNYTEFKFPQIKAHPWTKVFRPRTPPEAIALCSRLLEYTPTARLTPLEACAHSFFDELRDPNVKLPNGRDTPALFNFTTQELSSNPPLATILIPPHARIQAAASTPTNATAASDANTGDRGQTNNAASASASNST

Nc1ncnc2c1N=C(c1ccccc1)CCN2
Ki [1]: 100 µM (active)
Ki [2]: 79.4 µM (active)
Ki [3]: 31.6 µM (active)
Ki [4]: 12.6 µM (active)
Ki [5]: 79.4 µM (active)
Ki [6]: 12.6 µM (active)
Ki [7]: 50.1 µM (active)
Ki [8]: 20 µM (active)
Ki [9]: 2 µM (active)
Ki [10]: 15.8 µM (active)
Ki [11]: 39.8 µM (active)
Ki [12]: 2 µM (active)
Ki (LIM domain kinase 1): 12.6 µM (active)
Ki [13]: 15.8 µM (active)
Ki [14]: 25.1 µM (active)
Ki [15]: 39.8 µM (active)
Ki [16]: 63.1 µM (active)
Ki (Aurora kinase B): 1.58 µM (active)
Ki [17]: > 63.1 µM (inactive)
Ki [18]: 2 µM (active)
Ki [19]: 39.8 µM (active)
Ki [20]: 12.6 µM (active)
Ki [21]: > 100 µM (inactive)
Ki [22]: 0.794 µM (active)
Ki [23]: 12.6 µM (active)
Ki [24]: 5.01 µM (active)
Ki [25]: 10 µM (active)
Ki [26]: 12.6 µM (active)
Ki [27]: 25.1 µM (active)
Ki [28]: 15.8 µM (active)
Ki [29]: 31.6 µM (active)
Ki (Activin receptor type-1): 10 µM (active)
Ki [30]: 5.01 µM (active)
Ki [31]: 3.98 µM (active)
Ki [32]: 6.31 µM (active)
Ki [33]: 7.94 µM (active)
Ki [34]: 100 µM (active)
Ki (Aurora kinase A): 7.94 µM (active)
Ki [35]: 3.16 µM (active)
Ki [36]: 0.398 µM (active)
Ki [37]: 2 µM (active)
Ki [38]: 31.6 µM (active)
Ki (Activated CDC42 kinase 1): 39.8 µM (active)
Ki [39]: 63.1 µM (active)
Ki [40]: 63.1 µM (active)
Ki [41]: 20 µM (active)
Ki [42]: 25.1 µM (active)
Ki [43]: 3.98 µM (active)
Ki [44]: > 100 µM (inactive)
Ki [45]: 79.4 µM (active)
Ki [46]: 10 µM (active)

Reference: ChEMBL document CHEMBL1201862, “PubChem BioAssay data set” (2004)
